Values quoted from earlier work as cited in patent US20240130937A1, “ORAL CARE COMPOSITION” (LACER, S.A., priority 2019, published 2024).

Conditions: at 25° C.

[Cl-].[Cl-].[Zn+2] [zinc chloride]
solubility in water: 4320 mg/mL
